Assays:
[1] = test system: effect of serotonin on the caudal artery of the rat; assay: Antagonistic activity on the effect of serotonin on the caudal artery of the rat (Test 1); settings: minimal concentration reducing amplitude of serotonin (40 ng/ml) contraction to at least 50% of normal; rat caudal artery strips; 5 min
Procedure: Test 1: Anta gonistic activity on the effect of serotonin on the caudal artery of the rat.
Caudal arteries from fasted male rats (210-235 g) are used in the test. Two helical strips having a length of 5-6 cm and a width of 2 mm are obtained from each artery and mounted vertically in a 100 ml organ bath containing an oxygenated Krebs-Henseleit solution. Submaximal contractions of the arterial strips are produced by adding single doses of serotonin (40 ng/ml) to the organ bath for 2 minutes with each time an interval of 10 minutes. The amplitude of the contraction is measured before and 5 minutes after adding the drug. After washing out, the agonist is added again three times in order to see whether the contraction is restored and normalized. […] In this connection the ED50 -values are the minimal concentrations of the concerned drugs which reduce the amplitude of the contraction to at least 50% of its normal value.

[2] = test system: gastric lesions induced by compound 48/80; assay: Gastric lesion test: lesions induced by compound 48/80 (Test 2); format: in vivo, rat (male, Wistar inbred strain); settings: Rattus norvegicus, po
Procedure: Test 2: Effects in gastric lesion tests
The shock, followed by dead, can be avoided if the rats are pretreated with a classical H 1 antagonist.
Male rats of a Wistar inbred strain, weighing 200-250 g, are starved overnight, water being available ad libitum. The test compounds are administered orally as a solution or as a suspension in aqueous medium. A control rat and a "blank" rat […]. One hour later 5-[4-(diphenylmethyl)-1-piperazinylmethyl]-1-methyl-1H-benzimidazole-2-methanol is administered subcutaneously to all rats at the dose of 2.5 mg/kg. […] Four hours after the intravenous injection of compound 48/80, the rats are decapitated and the stomachs are removed. Subsequently the stomachs are inspected for distension and contents (blood, fluid, food) and thoroughly rinsed. The macroscopic lesions are secured from 0 to +++, 0 corresponding to complete absence of visible lesions and the highest score corresponding to reddish rough patches covering more than half the glandular area.

[3] = test system: rats injected with compound 48/80; settings: known serotonin antagonists; cited from earlier work

| Compound | Caudal Artery ED50 [1] [ng/mL] | ED50 [2] [mg/kg] | prevention of cyanosis of ears and extremities, of lesions in the glandular area of the stomach and of abnormal gastric distension [3] |
| --- | --- | --- | --- |
| Cc1nc2ccccn2c(=O)c1CCN1CCC(C(=O)c2ccc(F)cc2)CC1 [H H CH2CH2 H C6 H4 .4F, 3-[2-[4-(4-fluorobenzoyl)-1-piperidinyl]ethyl]-2-methyl-4H-pyrido[1,2-a]pyrimidin-4-one] | 0.32 | 0.016 |  |
| Cc1nc2ccc(Cl)cn2c(=O)c1CCN1CCC(c2c[nH]c3ccccc23)CC1 [H 7-Cl, 7-chloro-3-[2-[4-(1H-indol-3-yl)-1-piperidinyl]ethyl]-2-methyl-4H-pyrido[1,2-a]pyrimidin-4-one] | 0.63 | 0.63 |  |
| CN1CCN2c3ccccc3Cc3ccccc3C2C1 (stereo not shown) [mianserin] |  |  | prevent completely |
| Cc1cc(C)n2c(=O)c(CCN3CCC(c4c[nH]c5ccccc45)CC3)c(C)nc2c1 [6-CH3 8-CH3, 3-[2-[4-(1H-indol-3-yl)-1-piperidinyl]ethyl]-2,6,8-trimethyl-4H-pyrido[1,2-a]pyrimidin-4-one] | 0.16 | 0.63 |  |
| CN1CCC(=C2c3ccccc3CCc3sccc32)CC1 [pizotifen] |  |  | prevent completely |
| Cc1nc2ccc(Br)cn2c(=O)c1CCN1CCC(C(=O)c2ccc(F)cc2)CC1 [H 7-Br CH2CH2 H C6 H4 .4F] | 0.31 | < 0.63 |  |
| Cc1nc2ccccn2c(=O)c1CCN1CCC(C)(C(=O)c2ccc(F)cc2)CC1 [H H CH2CH2 CH3 C6 H 4 .4F] | 0.63 | 0.16 |  |
| Cc1nc2ccccn2c(=O)c1CCN1CCC(CO)(C(=O)c2ccc(F)cc2)CC1.Cl.Cl.O [H H CH2CH2 CH2 OH C6 H4 .4F, 3-[2-[4-(4-fluorobenzoyl)-4-(hydroxymethyl)-1-piperidinyl]ethyl]-2-methyl-4H-pyrido[1,2-a]pyrimidin-4-one dihydrochloride monohydrate] |  | < 0.63 |  |
| Cc1ccc2nc(C)c(CCN3CCC(C(=O)c4ccc(F)cc4)CC3)c(=O)n2c1 [H 7-CH3 CH2CH2 H C6 H4.4F] | 0.31 | 0.02 |  |
| Cc1ccn2c(=O)c(CCN3CCC(C(=O)c4ccc(F)cc4)CC3)c(C)nc2c1 [H 8-CH3 CH2CH2 H C6 H4 .4F] | < 2.5 | 0.04 |  |
| Cc1ccc2nc(C)c(CCN3CCC(c4c[nH]c5ccccc45)CC3)c(=O)n2c1 [H 7-CH3, 3-[2-[4-(1H-indol-3-yl)-1-piperidinyl]ethyl]-2,7-dimethyl-4H-pyrido-[1,2-a]pyrimidin-4-one] | 0.31 | 0.63 |  |
| Cc1cc(C)n2c(=O)c(CCN3CCC(C(=O)c4ccc(F)cc4)CC3)c(C)nc2c1 [6-CH3 8-CH3 CH2CH2 H C6 H4.4F] | 0.16 | 0.02 |  |
| Cc1ccn2c(=O)c(CCN3CCC(c4c[nH]c5ccccc45)CC3)c(C)nc2c1 [H 8-CH3, 3-[2-[4-(1H-indol-3-yl)-1-piperidinyl]ethyl]-2,8-dimethyl-4H-pyrido[1,2-a]pyrimidin-4-one] | 0.31 | 0.04 |  |
| Cc1nc2ccccn2c(=O)c1CC(C)N1CCC(C(=O)c2ccc(F)cc2)CC1 (stereo not shown) [H H drawing 24 H C6 H4 .4F] |  | 2.5 |  |
| Cc1nc2ccccn2c(=O)c1CCN1CCC(c2c[nH]c3ccccc23)CC1 [H H, 3-[2-[4-(1H-indol-3-yl)-1-piperidinyl]ethyl]-2-methyl-4H-pyrido[1,2-a]pyrimidin-4-one] | 0.14 | 0.08 |  |
| Cc1nc2ccc(Br)cn2c(=O)c1CCN1CCC(c2c[nH]c3ccccc23)CC1 [H 7-Br, 7-bromo-3-[2-[4-(1H-indol-3-yl)-1-piperidinyl]ethyl]-2-methyl-4H-pyrido[1,2-a]pyrimidin-4-one] | 0.31 | 1.25 |  |
| Cc1nc2ccc(Cl)cn2c(=O)c1CCN1CCC(C(=O)c2ccc(F)cc2)CC1 [H 7-Cl CH2CH2 H C6 H4.4F] | 1.25 | 0.01 |  |
| Cc1nc2ccccn2c(=O)c1CCN1CCC(O)(C(=O)c2ccc(F)cc2)CC1 [H H CH2CH2 OH C6 H4 .4F] | 0.31 | 2.5 |  |
| CN(C)CCCSc1ccccc1NC(=O)/C=C/c1ccccc1 [cinanserin] |  |  | prevent completely |
| Cc1nc2cccc(C)n2c(=O)c1CCN1CCC(C(=O)c2ccc(F)cc2)CC1 [H 6-CH3 CH2CH2 H C6 H4 .4F] | < 0.63 | 2.5 |  |
| Cc1nc2cccc(C)n2c(=O)c1CCN1CCC(c2c[nH]c3ccccc23)CC1 [H 6-CH3, 3-[2-[4-(1H-indol-3-yl)-1-piperidinyl]ethyl]-2,6-dimethyl-4H-pyrido[1,2-a]pyrimidin-4-one] | 0.08 | 0.16 |  |
| Cc1ccccc1C(=O)C1CCN(CCc2c(C)nc3ccccn3c2=O)CC1 [H H CH2CH2 H C6 H4.2CH3] | 1.25 |  |  |
| Cc1nc2ccccn2c(=O)c1CCN1CCC(C(=O)c2ccccc2)CC1 [H H CH2CH2 H C6 H5, 3-[2-(4-benzoyl-1-piperidinyl)ethyl]-2-methyl-4H-pyrido[1,2-a]pyrimidin-4-one] | 0.63 | 0.63 |  |
| NC(=O)C1(N2CCCCC2)CCN(CCCC(=O)c2ccc(F)cc2)CC1 [pipamperone] |  |  | prevent completely |
| CN1C[C@H](CNC(=O)OCc2ccccc2)C[C@@H]2c3cccc4c3c(cn4C)C[C@H]21 [metergoline] |  |  | prevent completely |
| O=C(CCCN1CCC2(CC1)C(=O)NCN2c1ccccc1)c1ccc(F)cc1 [spiperone] |  |  | prevent completely |
| Cc1nc2ccccn2c(=O)c1CCN1CCC(C(=O)c2cccs2)CC1 [H H CH2CH2 H 2-thienyl] | 1.3 |  |  |
| CN1CCC(=C2c3ccccc3C=Cc3ccccc32)CC1 [cyproheptadine] |  |  | prevent completely |
| CC[C@@H](CO)NC(=O)[C@@H]1C=C2c3cccc4c3c(cn4C)C[C@H]2N(C)C1 [methysergide] |  |  | prevent completely |

From patent publication US4342870A, “Novel 3-(1-piperidinylalkyl)-4H-pyrido[1,2-a]pyrimidin-4-one derivatives” (Janssen Pharmaceutica N.V., priority 1980, dated 1982)
